According to ChEMBL document CHEMBL1201862, “PubChem BioAssay data set” (2004):
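Cultured in 96-well plates, cells were exposed to test compound for 48 hours across five concentrations. GI50 = concentration required for 50% inhibition of growth.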 Calls of active or inactive are those of the source. Rule as the data show it: active = GI50 up to about 1.1 µM and inactive = higher.

Tests used:
Test in all cases: growth of human tumour cells (NCI), 48 h
OVCAR-8 = system: OVCAR-8
ACHN = system: ACHN
NCI-H23 = system: NCI-H23
SN12C = system: SN12C
HT-29 = system: HT-29
HOP-92 = system: HOP-92
HCT-15 = system: HCT-15
K562 = system: K562
UACC-257 = system: UACC-257
SF-268 = system: SF-268
M14 = system: M14
SK-MEL-2 = system: SK-MEL-2
SK-OV-3 = system: SK-OV-3
OVCAR-3 = system: OVCAR-3
NCI-H460 = system: NCI-H460
CCRF-CEM = system: CCRF-CEM
U-251 = system: U-251
SF-295 = system: SF-295
A549 = system: A549
A498 = system: A498

SMILES	GI50 (OVCAR-8)	GI50 (ACHN)	GI50 (NCI-H23)	GI50 (SN12C)	GI50 (HT-29)	GI50 (HOP-92)	GI50 (HCT-15) [µM]	GI50 (K562)	GI50 (UACC-257)	GI50 (SF-268)	GI50 (M14)	GI50 (SK-MEL-2)	GI50 (SK-OV-3)	GI50 (OVCAR-3)	GI50 (NCI-H460)	GI50 (CCRF-CEM)	GI50 (U-251)	GI50 (SF-295)	GI50 (A549)	GI50 (A498)
COc1ccc(Nc2cnc3cc(N)ccc3n2)cc1OC	37.4 µM (inactive)	83.9 µM (inactive)	26.9 µM (inactive)	39.3 µM (inactive)	> 100 µM (inactive)	7.62 µM (inactive)	> 100	46.8 µM (inactive)	> 100 µM (inactive)	74.1 µM (inactive)	> 100 µM (inactive)	44.3 µM (inactive)	> 100 µM (inactive)	> 100 µM (inactive)	23.9 µM (inactive)	37.4 µM (inactive)	40.7 µM (inactive)	34.3 µM (inactive)		
O=C(O)C1CC2C=CCC(C2)C1 (stereo unspecified)	> 100 µM (inactive)	> 100 µM (inactive)	> 100 µM (inactive)		> 100 µM (inactive)	> 100 µM (inactive)	> 100	> 100 µM (inactive)	> 100 µM (inactive)	> 100 µM (inactive)	> 100 µM (inactive)	91.8 µM (inactive)	> 100 µM (inactive)	> 100 µM (inactive)	> 100 µM (inactive)	> 100 µM (inactive)	> 100 µM (inactive)	> 100 µM (inactive)	> 100 µM (inactive)	
CC[n+]1c(-c2ccccc2)c2cc(N)ccc2c2ccc(N)cc21 [HOMIDIUM BROMIDE]		19 µM (inactive)	1.53 µM (inactive)	3.24 µM (inactive)	3.67 µM (inactive)	2.24 µM (inactive)	55.5	2.96 µM (inactive)	2.01 µM (inactive)		13.6 µM (inactive)	2.08 µM (inactive)	3.52 µM (inactive)	3.07 µM (inactive)	5.06 µM (inactive)		4.38 µM (inactive)	2.82 µM (inactive)	11.9 µM (inactive)	
CCc1ccc2nc(-c3ccc(O)cc3)sc2c1	19.5 µM (inactive)	17.7 µM (inactive)	16.1 µM (inactive)	14.6 µM (inactive)	16.6 µM (inactive)		15.1	19.6 µM (inactive)	12.7 µM (inactive)	17.4 µM (inactive)	18.7 µM (inactive)	16.5 µM (inactive)	16.7 µM (inactive)	13.6 µM (inactive)	21.1 µM (inactive)		17.7 µM (inactive)	16.8 µM (inactive)	17.9 µM (inactive)	18 µM (inactive)
COc1ccc(C[C@H]2COC(=O)[C@@H]2Cc2cccc(Br)c2)cc1OC	24.4 µM (inactive)	18.6 µM (inactive)	21.2 µM (inactive)	27.5 µM (inactive)	21.8 µM (inactive)	12.1 µM (inactive)	29.7	5.97 µM (inactive)	21.5 µM (inactive)	29.7 µM (inactive)	14.4 µM (inactive)	26 µM (inactive)	26.6 µM (inactive)	20 µM (inactive)	26.2 µM (inactive)	5.11 µM (inactive)	26.4 µM (inactive)	32.7 µM (inactive)	32.9 µM (inactive)	
O=C(Nc1nccs1)c1c(O)nc2sccn2c1=O	> 10 µM (inactive)	> 10 µM (inactive)	> 10 µM (inactive)	> 10 µM (inactive)	> 10 µM (inactive)		> 10			> 10 µM (inactive)	> 10 µM (inactive)	> 10 µM (inactive)	> 10 µM (inactive)	> 10 µM (inactive)	> 10 µM (inactive)	> 10 µM (inactive)	> 10 µM (inactive)	> 10 µM (inactive)	> 10 µM (inactive)	> 10 µM (inactive)
